This passage reports Papp A→B, concentration and pKa results from ChEMBL document CHEMBL1153192, “Macrocyclic BACE-1 inhibitors acutely reduce Abeta in brain after po application” (Bioorg Med Chem Lett, 2010).

One data set relates to MDR1. The experiment in a line: Apparent permeability from apical to basolateral side of MDCK cells expressing MDR1. It is filed as ADME, cell-based, Canis lupus familiaris. The settings on record: dog.
A short description of data set [1]: Plasma concentration in APP50/16 tg mouse at 60 umol/kg, po after 4 hrs. It is filed as ADME, organism-based. The following applies: APP50/16 transgenic.
A short description of data set [2]: Drug level in APP50/16 tg mouse brain at 60 umol/kg, po after 4 hrs. It is filed as ADME, organism-based. The settings on record: APP50/16 transgenic, read-out: Drug uptake.
Data set [3] is described as follows: Dissociation constant, pKa of the compound. It is filed as physicochemical.

As to `COCc1cc2cc(n1)OCCCCOc1cccc(c1)C[C@@H]([C@H](O)CNC1(c3cccc(C(C)C)c3)CC1)NC2=O`, the Papp A→B in the data set on MDR1 came to 4.9 ×10⁻⁶ cm/s. Also, the concentration at 4 h in data set [1] was determined as 2200 nM; in data set [2], 540 nM.
`COCc1cc2cc(c1)C(=O)N[C@H]([C@H](O)CNC1(c3cccc(C(C)C)c3)CC1)Cc1cccc(c1)OCCCCN2`: the Papp A→B in the data set on MDR1 was 3.1 ×10⁻⁶ cm/s. Also, the concentration at 4 h is 1200 nM in data set [1] and 250 nM in data set [2]. The pKa in data set [3] amounted to 7.3.
Consider `CC(C)c1cccc(CNC[C@@H](O)[C@@H]2Cc3cccc(c3)OCCCCNc3cccc(c3)C(=O)N2)c1`, for which the Papp A→B in the data set on MDR1 turned out to be 2 ×10⁻⁶ cm/s.
Same read-out and setting: next, `COCc1cc2cc(c1)C(=O)N[C@H]([C@H](O)CNC(C)(C)c1cccc(C(C)C)c1)Cc1cccc(c1)OCCCCN2`: 1.8 ×10⁻⁶ cm/s.
Turning to `CC(C)c1cccc(C2(NC[C@@H](O)[C@@H]3Cc4cccc(c4)OCCCCOc4cc(cc(N5CCCC5=O)c4)C(=O)N3)CC2)c1`, the Papp A→B in the data set with MDR1 amounted to 0.4 ×10⁻⁶ cm/s.
As to `COCc1cc2cc(c1)C(=O)N[C@H]([C@H](O)CNC1(c3cccc(C(C)(C)C)c3)CCC1)Cc1cccc(c1)OCCCCN2`, the Papp A→B in the data set with MDR1 is 1.2 ×10⁻⁶ cm/s.
With `Cc1cc2cc(n1)OCCCCOc1cccc(c1)C[C@@H]([C@H](O)CNC(C)c1cccc(C(C)C)c1)NC2=O` (stereo not given in full), the Papp A→B with MDR1 was found to be 1.3 ×10⁻⁶ cm/s. In addition, in data set [3], the pKa was found to be 8.5.
Take `COCc1cc2cc(c1)C(=O)N[C@H]([C@H](O)CNC(COC)c1cccc(C(C)(C)C)c1)Cc1cccc(c1)OCCCCN2` (stereo not given in full): the Papp A→B in the data set with MDR1 came to 1.3 ×10⁻⁶ cm/s.
With `COCc1cc2cc(c1)C(=O)N[C@H]([C@H](O)CNC(CF)c1cccc(C(C)(C)C)c1)Cc1cccc(c1)OCCCCN2` (stereo not given in full), in the data set on MDR1, the Papp A→B was determined as 3.8 ×10⁻⁶ cm/s. This compound also showed a pKa in data set [3] of 7.2.
For the compound `COCc1cc2cc(c1)C(=O)N[C@H]([C@H](O)CNCc1cccc(C(C)C)c1)Cc1cccc(c1)OCCCCN2`, the Papp A→B in the data set with MDR1 was 0.16 ×10⁻⁶ cm/s.
Same read-out and setting: next, `COCc1cc2cc(c1)C(=O)N[C@H]([C@H](O)CNC1(c3cccc(C(C)(C)C)c3)CCCC1)Cc1cccc(c1)OCCCCN2`: 1.4 ×10⁻⁶ cm/s; `Cc1cc2cc(n1)NCCCCOc1cccc(c1)C[C@@H]([C@H](O)CNCc1cccc(C(C)C)c1)NC2=O`: 0.17 ×10⁻⁶ cm/s.
Turning to `COCc1cc2cc(c1)C(=O)N[C@H]([C@H](O)CNC(c1cccc(C(C)(C)C)c1)C(F)(F)F)Cc1cccc(c1)OCCCCN2` (stereo not given in full), in the data set with MDR1, the Papp A→B was determined as 5.6 ×10⁻⁶ cm/s. This compound also returned a pKa in data set [3] of 3.8.
Take `Cc1cc2cc(n1)OCCCCOc1cccc(c1)C[C@@H]([C@H](O)CNCc1cccc(C(C)C)c1)NC2=O`: the Papp A→B in the data set with MDR1 stood at 1.3 ×10⁻⁶ cm/s. The values for the concentration at 4 h in data set [1] and in data set [2] were 30 nM and 40 nM, respectively.
Regarding `CC(C)c1cccc(CNC[C@@H](O)[C@@H]2Cc3cccc(c3)OCCCCNc3cc(cc(N4C=COC4)c3)C(=O)N2)c1`, in the data set with MDR1, the Papp A→B amounted to 0.11 ×10⁻⁶ cm/s.
Consider `CCCS(=O)(=O)N(C)c1cc2cc(c1)C(=O)N[C@H]([C@H](O)CNCc1cccc(C(C)C)c1)Cc1cccc(c1)OCCCCN2`, for which the Papp A→B with MDR1 turned out to be 0.95 ×10⁻⁶ cm/s.
On to `CCCS(=O)(=O)N(C)c1cc2cc(c1)C(=O)N[C@H]([C@H](O)CNC1(c3cccc(C(C)C)c3)CC1)Cc1cccc(c1)OCCCCN2`, for which the Papp A→B in the data set on MDR1 stood at 0.28 ×10⁻⁶ cm/s.
For the compound `Cc1cc2cc(n1)OCCCCOc1cccc(c1)C[C@@H]([C@H](O)CNC1(c3cccc(C(C)C)c3)CC1)NC2=O`, the Papp A→B in the data set with MDR1 was 4 ×10⁻⁶ cm/s. For the same compound, the concentration at 4 h in data set [1] amounted to 3000 nM; in data set [2], 320 nM.

A word on the Papp A→B: it is how fast a substance crosses the layer from the apical side. In general, pKa refers to the negative logarithm of the acid dissociation constant.
